Common to all, as to format: binding
Test [1] deals with T1, MUP11 (Mus musculus, UniProt P04938).
T1 construct: N-terminal His6-tagged recombinant MUP11 (mature protein)
T1 sequence (P04938 20-181): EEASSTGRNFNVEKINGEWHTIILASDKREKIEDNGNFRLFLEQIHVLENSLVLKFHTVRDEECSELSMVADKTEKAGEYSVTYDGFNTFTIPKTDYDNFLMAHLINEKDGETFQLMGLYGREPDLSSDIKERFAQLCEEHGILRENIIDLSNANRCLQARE
Nature of the test: 1H-15N HSQC NMR chemical shift perturbation.

For test [2], the target named is T2, darcin (Mus musculus, UniProt Q5FW60).
T2 construct: gene Mup20; N-terminal His6-tagged recombinant darcin (mature protein)
T2 sequence (Q5FW60 20-181): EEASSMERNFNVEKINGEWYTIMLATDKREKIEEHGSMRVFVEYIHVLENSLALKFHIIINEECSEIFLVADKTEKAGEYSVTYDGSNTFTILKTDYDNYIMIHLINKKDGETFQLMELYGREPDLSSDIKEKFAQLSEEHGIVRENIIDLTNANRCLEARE
Nature of the test: 1H-15N HSQC NMR chemical shift perturbation.

The target in test [3] is T1, MUP11. Nature of the test: ITC, one-site model, […] °C; also 1H-15N HSQC NMR titration. On the technique in general: In ITC the heat of successive injections is recorded.
Test [4] deals with T2, darcin. The description is as above.

Take `CC1=CC(=O)c2ccccc2C1=O` [K3, menadione]: the “1H-15N HSQC NMR chemical shift perturbation” value on MUP11 [1] is “The smaller ligands, K3 and SBT, bind to both darcin and MUP11 in the hydrophobic cavity of the beta barrel”; at darcin [2] it was “The smaller ligands, K3 and SBT, bind to both darcin and MUP11 in the hydrophobic cavity of the beta barrel”.

What is called Kd is the free concentration of one partner at which half of the binding sites on the other are occupied at equilibrium, for simple one-to-one binding. Higher therefore signals a looser complex. Take `CCC(C)c1nccs1` (stereo not shown) [SBT, 2-sec-butyl-thiazole]: the Kd on MUP11 [3] was roughly 2.76 µM; at darcin [4], roughly 0.173 µM.

For the origin of these results see paper PMC4184797, “The Structure, Stability and Pheromone Binding of the Male Mouse Protein Sex Pheromone Darcin” (PLoS ONE, 2014).
